Results: PMC7425896, “Polypeptides derived from α-Synuclein binding partners to prevent α-Synuclein fibrils interaction with and take-up by cells” (PLoS ONE, 2020)
No end group written: not given here.

Tests used:
αSyn fibrils [1] = molecular target: T1, αSyn fibrils (Homo sapiens, UniProt P37840); assay: Binding of peptides and Surfen to preformed αSyn fibrils, sedimentation and reversed phase chromatography; settings: αSyn fibrils 100 μM; for Bound peptides / Bound peptides (%) / binding to αSyn fibrils (in words): ligand 200 μM, 1h RT, PBS; for Bound peptides / Bound peptides (%): pellet 20,000g, C18 reversed phase chromatography, absorbance 215 nm (peptides) or 260 nm (Surfen); for binding to αSyn fibrils (in words) / Kd: sedimentation, reversed phase chromatography; for Kd: peptide 0–200 μM
T1 construct: made in house
Experimental: Hsc70-derived peptides, the […] peptide or the Surfen molecule (0 or 200 μM) were incubated with or without αSyn fibrils (100 μM) for 1h at RT in PBS. The samples were centrifuged for 30 min in a […] tabletop centrifuge (Eppendorf) at 20,000g and 20°C. The pellets were first washed by 100 μL of 0.1% TFA and then dissolved for 30 min in 30 μL of pure TFA. After TFA evaporation, the samples were resuspended in 0.1% TFA and stored at -20°C. The composition of each sample was assessed by phase reverse chromatography on a C18 column (Jupiter C18 300A from Phenomenex, Torrance, CA, USA). The solvant composition was 0.1% TFA for solvent A and 80% acetonitrile, 0.09% TFA for solvent B, and the flow was set at 200 μl/min. The column was equilibrated in 5% B. The peptides were eluted by a gradient from 5% to 80% of solvent B. The amount of αSyn-associated ligand present in each sample was determined by comparing their respective absorbance at 215 nm (peptides) or 260 nm (Surfen) to the absorbance of a known amount of the same ligand. For KD measurements the same experiment was performed using a range of peptide concentrations (0-200 μM).

[2] = Secondary structure content by far-UV circular dichroism; assay type: physicochemical; settings: far-UV CD, 20°C, deconvoluted with Dichroweb
Experimental: Far-UV CD spectra were recorded at 20°C using a JASCO J-810 dichrograph equipped with a thermostated cell holder using a 0.01-cm path length quartz cuvette. Each spectrum was the average of 10 acquisitions recorded in the 260–195 nm range with 0.5-nm steps, a bandwidth of 2 nm, and at a speed of 50 nm/min. All spectra were buffer corrected. The spectra were deconvoluted with the Dichroweb software.

αSyn fibrils [3] = molecular target: T1, αSyn fibrils; assay: Filter trap (cellulose acetate filter retardation) assay of ATTO488-labelled Hsc70 and subdomains binding to αSyn fibrils; settings: labelled:unlabelled 1:50, 0–2 μM (domains 0–5 μM), αSyn fibrils 1 μM, PBS, 1h RT, fluorescence, filtered in triplicate, 2 to 3 independent experiments, read-out: KD of ATTO488-labelled polypeptides for αSyn fibrils
Experimental: The KD for Hsc70, SBD, SBDβ and SBD-lid interaction with αSyn fibrils were measured as follow. Hsc70 and its subdomains were first labeled by addition of the aminoreactive fluorescent dye ATTO488 (Invitrogen, Carlsbad, CA, USA) using a protein:dye molar ratio of 1:5. The reaction was stopped by adding Tris-HCl pH 7.5 (20 mM final concentration). The unreacted fluorophore was removed by NAP5 desalting column. Under these conditions the majority of primary amines unaffected by the labelling as 0.05 to 0.08 dye molecules were incorporated on average within Hsc70 or its subdomains, as assessed by absorbance spectroscopy. Binding of ATTO488-labeled polypeptides to fibrillar αSyn was then followed by a filter retardation assay where fibrils and associated proteins are retained on a membrane. The different ATTO488-labeled polypeptides were diluted with their unlabeled counterpart (labeled:unlabeled polypeptides ratio of 1:50) at different final concentrations (0–2 μM) and incubated with or without αSyn fibrils (1 μM) in PBS for 1h at RT. 200 μl of each sample were filtered in triplicate through cellulose acetate membranes (0.2 μm pore size, Millipore Corp., Bedford, MA) using a 48-slot slot-blot filtration apparatus (GE Healthcare). The amount of labeled polypeptide retained on the membrane was visualized using a ChemiDocTM MP (BioRad). Images were processed and quantified using Image Lab.

Neuro-2a cells [4] = assay: Internalization (take-up) of αSyn-Alexa488 fibrils by Neuro-2a cells, 96-well plate assay with Trypan blue quenching; assay type: cell-based, Murine; settings: Trypan blue quench; for effect of endocytosis inhibitors on αSyn fibrils take-up by Neuro-2a cells: cells exposed 1 hour to chlorpromazine 0–10 μg/ml or EIPA 0–50 μM before αSyn-Alexa488 fibrils 0.5 μM, 4 hours, 5 wells
Experimental: The uptake of Alexa488-labeled αSyn fibrils (0.5 μM equivalent monomer concentration) pre-incubated or not for 30 min at 37°C in DMEM with the ligands (Hsc70, peptides or Surfen) at different concentrations to Neuro-2A cells was also assessed using a 96-well plate assay. The cells cultured on 96-wells plates were incubated with the fibrils, preincubated or not with the ligands for 30 min at 37°C in DMEM, in 5 independent wells. After 4 hours the media was removed and Hoechst (Sigma-Aldrich) diluted at 0.2 μg/ml in serum-free, phenol red-free DMEM was added for 30 min. The cells were washed twice with serum-free, phenol red-free DMEM and 0.1% Trypan Blue (Sigma-Aldrich) was added to quench the fluorescence of plasma membrane-bound Alexa488-labeled αSyn fibrils. For each wells Alexa488 and Hoechst fluorescences were recorded on a Clariostar microplate reader (BMG LABTECH GmbH, Germany).
To assess to role of endocytosis in αSyn fibrils internalization, Neuro-2a cells cultured on 96-wells plates were first incubated with increasing concentrations of chlorpromazine or l’5-N-ethyl-isopropyl-amiloride (EIPA). After 1 hour Alexa488-labeled αSyn fibrils (0.5 μM equivalent monomer concentration) was added. The experiment was then performed as above.

fibrillar αSyn [5] = assay: Sedimentation assay of Hsc70 with fibrillar αSyn, SDS-PAGE of pellet and supernatant; assay type: binding, human; settings: Hsc70 10 μM, fibrillar αSyn 100 μM, 1h RT, PBS, 50,000g 30 min
Experimental: For binding assay, αSyn fibrils (100 μM) alone, Hsc70 alone (10 μM) or αSyn fibrils and Hsc70 (100 and 10 μM, respectively) were incubated for 1h at RT in PBS. Samples were spun for 30 min at 50,000g and 20°C in a TL100 tabletop ultracentrifuge (Beckman) and the proportion of Hsc70 present in the pellet vs the supernatant was analysed by SDS-PAGE.

Neuro-2a cells [6] = assay: Binding of αSyn-Alexa488 fibrils to the plasma membrane of Neuro-2a cells; assay type: cell-based, Murine; settings: αSyn-Alexa488 fibrils 1 μM pre-incubated with ligand (0–10 μM) in DMEM 30 min 37°C; cells exposed 30 min; % cells with at least 1 fluorescent foci
Experimental: Alexa488-labeled αSyn fibrils (1 μM equivalent monomer concentration) were first incubated for 30 min at 37°C in DMEM without or with the ligands (Hsc70 or the NKApep peptide) at different concentrations. Neuro-2a cells cultured on ibidi-μ-Dishes (ibidi, Martinsried, Germany) were then incubated for 30 min with this mix. Then, the cells were washed and immediately imaged in serum-free, phenol red-free DMEM on a Zeiss Axio Observer Z1 epifluorescence microscope equipped with an Incubator XLmulti S2 RED LS (Carl Zeiss) and an Orca-R2 camera (Hamamatsu) at a 20x magnification. The percentage of cells with bound Alexa488 foci was estimated by randomly counting at least 500 cells in 10–15 fields and the experiments were reproduced independently 3 times. For each field the number of foci was automatically assessed using the software Fiji and an in-house built plugin.

fibrillar αSyn [7] = settings: sedimentation assay; read-out: dissociation constant of Hsc70 for fibrillar αSyn; cited from earlier work
Experimental: We previously brought evidence for Hsc70 interaction with fibrillar αSyn using a sedimentation assay. The dissociation constant we measured was 0.1 μM. Here we confirmed the interaction between Hsc70 and fibrillar αSyn using the same sedimentation assay followed by quantitative analysis of the proteins in the pellet and the supernatant fractions by SDS-PAGE (Fig 1A). […] To determine the affinity of Hsc70 for fibrillar αSyn we incubated preform ...

monomeric αSyn = assay: Monomeric αSyn assembly into fibrils monitored by Thioflavin T binding; assay type: biochemical, human; settings: soluble αSyn 50 μM, peptide 50 μM (equimolar), PBS, 37°C, 600 rpm, 4 independent experiments
Experimental: αSyn (50 μM monomer concentration) was incubated in the absence or in the presence of peptides (50 μM) in PBS at 37°C under continuous shaking in an Eppendorf Thermomixer set at 600 rpm. Aliquots (10 μL) were withdrawn at different time intervals from the assembly reaction and mixed to a Thioflavin T solution (10 μM; 400 μL). Thioflavin T fluorescence was recorded with a Cary Eclipse spectrofluorimeter (Varian Medical Systems Inc.) using excitation and emission wavelengths set at 440 and 480 nm, respectively. The nature of the fibrils obtained at the end of the aggregation reaction was assessed by electron microscopy as described above. The proportion of αSyn assembled into fibrils was assessed by ultracentifugation in a TL100 tabletop centrifuge (Beckman) at 50,000g and 20°C for 30 min and analyse of the supernatant and pellet fractions by SDS-PAGE. Following Coomassie staining / destaining the gels were visualized using a ChemiDocTM MP (BioRad). Images were processed and quantified using Image Lab.

| Compound | Bound peptides (αSyn fibrils [1]) | Bound peptides (%) (αSyn fibrils [1]) | binding to αSyn fibrils (in words) (αSyn fibrils [1]) | Secondary structure composition other [2] | Secondary structure composition α-helix [2] | Secondary structure composition β-strand [2] | also measured |
| --- | --- | --- | --- | --- | --- | --- | --- |
| GKFELTGIPPAPRGVPQIEVT [Hsc-8] | 1.6 µM | 0.8% | did not bind | 69% | 7% | 24% | – |
| Hsc70-ATTO488: Hsc70 labeled with the aminoreactive fluorescent dye ATTO488 | – | – | – | – | – | – | Kd (αSyn fibrils [3]): 0.49 ± 0.02 µM |
| VEDEKLQGKINDED [Hsc-2] | 1.0 µM | 0.5% | did not bind | 81% | 6% | 13% | – |
| LTGIPPAPRGVPQIE [Hsc-7] | 1.2 µM | 0.6% | did not bind | 73% | 10% | 17% | – |
| Cc1cc(N)c2cc(NC(=O)Nc3ccc4nc(C)cc(N)c4c3)ccc2n1 [Surfen, reference compound] | 176 µM | 88% | found to bind to αSyn fibrils | – | – | – | effect on αSyn fibrils take-up by Neuro-2a cells (Neuro-2a cells [4]; ligand 2 or 10 μM with Alexa488-labeled αSyn fibrils 1 μM in DMEM 30 min 37°C, cells exposed 2 hours, 3 independent experiments): affected, in a dose-dependent way, their take-up |
| Hsc70: molecular chaperone Hsc70, recombinant His6-tagged, full-length | – | – | – | – | – | – | Hsc70 co-sedimentation with pre-formed αSyn fibrils (fibrillar αSyn [5]): pulled into the pellet; effect on αSyn fibrils binding to Neuro-2a cells (Neuro-2a cells [6]): affects αSyn fibrils binding to Neuro-2a cells in a dose-dependent manner; effect on αSyn fibrils take-up by Neuro-2a cells (Neuro-2a cells [4]; αSyn-Alexa488 fibrils 0.5 μM pre-incubated with ligand 0–10 μM in DMEM 30 min 37°C, cells exposed 4 hours, plate reader): significantly affected their take-up; Kd (fibrillar αSyn [7]): 0.1 µM |
| CN(C)CCCN1c2ccccc2Sc2ccc(Cl)cc21 [chlorpromazine] | – | – | – | – | – | – | effect of endocytosis inhibitors on αSyn fibrils take-up by Neuro-2a cells (Neuro-2a cells [4]): inhibited in a dose-dependent manner |
| TKQTQTFTTYSDNQPGVLIQVYE [Hsc-6] | 68 µM | 34% | did bind | 80% | 0% | 20% | Kd (αSyn fibrils [1]): > 100 µM; effect on αSyn assembly into fibrils (monomeric αSyn): significantly slowed down αSyn assembly into fibrils |
| NMKATVEDEKLQGKINDEDKQKIL [Hsc-3] | 1.2 µM | 0.6% | did not bind | 84% | 9% | 7% | – |
| CCN(c1nc(N)c(C(=O)N=C(N)N)nc1Cl)C(C)C [EIPA, l’5-N-ethyl-isopropyl-amiloride] | – | – | – | – | – | – | effect of endocytosis inhibitors on αSyn fibrils take-up by Neuro-2a cells (Neuro-2a cells [4]): inhibited in a dose-dependent manner |
| FTTYSDNQPGV [Hsc-5] | 2.8 µM | 1.4% | did not bind | 85% | 0% | 15% | – |
| LSKEDIERMVQEAEKY [Hsc-1] | 1.2 µM | 0.6% | did not bind | 48% | 52% | 0% | – |
| GILNVSAVDKSTGKENKITITN [Hsc-10] | 72 µM | 36% | did bind | 41% | 46% | 13% | Kd (αSyn fibrils [1]): > 100 µM; effect on αSyn assembly into fibrils (monomeric αSyn): accelerated aggregation |
